The values below come from PMC12300835, “Geographic Influence and Metabolomics-Driven Discovery of 5-Alpha Reductase Inhibitors in Tectona grandis L.f. (Teak) Leaves” (Molecules, 2025).

Each structure is given as a SMILES string.

For assay [1], the target named is T1, S5AR enzyme derived from LNCaP cells (Homo sapiens, UniProt P18405).
T1 sequence (P18405 1-259): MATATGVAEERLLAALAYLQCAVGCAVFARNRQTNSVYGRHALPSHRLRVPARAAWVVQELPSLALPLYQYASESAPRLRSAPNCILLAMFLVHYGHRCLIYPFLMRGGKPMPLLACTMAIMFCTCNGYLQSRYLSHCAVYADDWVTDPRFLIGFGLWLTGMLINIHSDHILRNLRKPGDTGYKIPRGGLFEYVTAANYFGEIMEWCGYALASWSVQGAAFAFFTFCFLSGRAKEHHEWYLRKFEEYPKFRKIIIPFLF
As to the kind of experiment: S5AR inhibition assay (DHT production quantified by LC-MS). Format: biochemical. The settings on record: read-out: S5AR percentage inhibition.

The target in assay [2] is T1, S5AR enzyme derived from LNCaP cells. The settings on record: taken from previous publication; read-out: S5AR Inhibitory Activity (IC50); cited from earlier work.

On to `COc1cc(/C=C/C(=O)CC(=O)/C=C/c2ccc(O)c(OC)c2)ccc1O` [Curcumin], for which the inhibition (as a rule, the change of the read-out against control, counted positive when it falls) at 50 µg/mL in assay [1] stood at 92.73 ± 0.14%.
Take `CC(C)(C)NC(=O)[C@H]1CC[C@H]2[C@@H]3CC[C@H]4NC(=O)C=C[C@]4(C)[C@H]3CC[C@]12C` [Finasteride]: the 50% inhibitory concentration (IC50) (usually the midpoint of a concentration-inhibition curve) in assay [2] was 760 ± 30 nM.
Turning to `CC1=C(CC[C@@H](C)CC(=O)O)[C@@]2(C)CCCC(C)(C)C2CC1=O` (stereo partly drawn) [Compound 2, 7-Oxo-8-labden-15-oic acid], the inhibition at 300 µM in assay [1] (final concentration of 300 µM) came to 41.4%.
